From paper PMC4992173, “Divergent synthesis and identification of the cellular targets of deoxyelephantopins” (Nature Communications, 2016)

Tested on: Caco-2 cells
Assay: In situ global proteomics profiling of Caco-2 cells (LC-MS/MS, LFQ)
Format: cell-based, human
Details: LFQ
Description: Figure 7 Identification of PPARγ as target of deoxyelephantopin and screening of DEP derivatives as PPARγ antagonists. (a) Quantification of endogenous PPARγ enriched from Caco-2 cells using 10 μM 24c following in situ treatment with DEP (20 μM) or DMSO (normalized LFQ values±s.d. are shown; n=6). (b) Changes in expression levels of five PPARγ-dependent proteins following 24 h treatment of Caco-2 cells with DMSO, rosiglitazone (10 μM), T0070907 (50 μM) or DEP (20 μM; LFQ ratios±s.d. are shown; n=3). **P<0.005 and ***P<0.0005 by two-sided Student's t-test. (c) Gel-based competitive screening of DEP and analogues as PPARγ antagonists against recombinant human enzyme (top). hPPARγ was treated with each compound (20 μM) for 1 h followed by treatment with 24c-Cy3 (10 μM) as probe. Quantification of fluorescence intensity in the competitive screening for PPARγ antagonists (bottom; values±s.d. are shown; n=3).
Caco-2 cells were treated with DMSO, PPARγ agonist rosiglitazone, antagonist T0070907 or DEP for 24 h, the cells were collected and the proteomes were comparatively analysed by LC–MS/MS. […] Furthermore, the list of 43 dysregulated proteins was analysed and classified using the GOrilla pathway analysis tool (Supplementary Fig. 15). […]
In situ global proteomics profiling using LC-MS/MS. Caco- ’ cells/mL) in a 6-well plate, allowed to grow to confluence and to differentiate for 28 days. The wells were washed one time with PBS and treated with either DMSO, 10 µM rosiglitazone, 50 µM T0070907 or 20 µM DEP for 24 hours. Cells were washed two times with PBS and lysates were prepared. Samples (30 µg) were denatured with 6 M urea in 50 mM NH4HCO3, reduced […]
dark. Samples were diluted to 2 M urea with 50 mM NH4HCO3, and digested with trypsin ([…] for 12 hours at 37 °C. Samples were acidified to a final concentration of 5% acetic acid, desalted over a self-packed C18 spin column and […]
dried. […]
LC-MS/MS analysis. Peptides were resuspended in water with 0.1% formic acid (FA) and analyzed using Proxeon EASY-nLC 1000 nano-UHPLC coupled to QExactive Plus Quadrupole-Orbitrap mass spectrometer (Thermo Scientific). The chromatography column […]
H2O (Buffer A) and 0.1% FA in MeCN (Buffer B). Peptides were eluted into the mass spectrometer at a flow rate of 300 nL/min. over a 240 min. linear gradient (3-35% Buffer B) at 50 °C. Data was acquired in data-dependent mode (top- N = ’ […]
and isotope exclusion was enabled.
MaxQuant analysis. The MS data was analyzed with MaxQuant (V1.5.2.8) and searched against the human proteome (Uniprot, 89,649 entries) and a common list of contaminants (included in MaxQuant). The first peptide search tolerance was set to 20 ppm, 10 ppm was used for the main peptide search and fragment mass tolerance was set to 0.02 Da. The false discovery rate for peptides, proteins and sites identification was set to 1%. The minimum peptide length was set to 6 amino acids and peptide re-quantification, label-free quantification (MaxLFQ) and “ ” were enabled. The minimal number of peptides per protein was set to two. Oxidized methionines and N-terminal acetylation were searched as variable modifications and carbamidomethylation of cysteines was searched as a fixed modification. For SILAC experiments 13C6 L-lysine and 13C6 15N4 L-arginine were set as heavy isotope labels and 12C6 L-lysine and 12C6 14N4 L-arginine as light isotope labels.
19 d k g h ARγ. 19a was covalently docked to the crystal structure of human γ ZU 190 using the GOLD suite (V5.3, CCDC). The default GOLD fitness function was used to determine the best binding configuration. The distance for hydrogen bonding was set to 3 Å.
IAA competition of 23c, 24c and DEP h ARγ. γ
(500 ng in 9 µL PBS) was treated with either 100 µM DEP, 23c, 24c or DMSO (1 µL of 10x stock in DMSO) for one hour. Samples were denatured with 6 M urea in 50 mM NH4HCO3, […]
in the dark. Samples were diluted to 2 M urea with 50 mM NH4HCO3, and digested with trypsin […]

## CN(CCOc1ccc(CC2SC(=O)NC2=O)cc1)c1ccccn1 (centres unmarked) [Rosiglitazone, rosiglitazone]
Protein ALDH3B1, 24 h
  Log2 10 µM Rosiglitazone/DMSO: -0.32
Protein ARHGAP17, 24 h
  Log2 10 µM Rosiglitazone/DMSO: 0.39
Protein ARMCX3, 24 h
  Log2 10 µM Rosiglitazone/DMSO: -0.36
Protein COL4A3BP, 24 h
  Log2 10 µM Rosiglitazone/DMSO: -0.06
Protein CROT, 24 h
  Log2 10 µM Rosiglitazone/DMSO: 0.034
Protein CTBP2, 24 h
  Log2 10 µM Rosiglitazone/DMSO: 0.36
Protein DDX21, 24 h
  Log2 10 µM Rosiglitazone/DMSO: 0.15
Protein FNTA, 24 h
  Log2 10 µM Rosiglitazone/DMSO: -0.12
Protein GID8, 24 h
  Log2 10 µM Rosiglitazone/DMSO: 0.46
Protein GIPC2, 24 h
  Log2 10 µM Rosiglitazone/DMSO: 0.0144
Protein GIT2, 24 h
  Log2 10 µM Rosiglitazone/DMSO: -0.38
Protein GSTA1, 24 h
  Log2 10 µM Rosiglitazone/DMSO: 0.21
Protein GSTA2, 24 h
  Log2 10 µM Rosiglitazone/DMSO: 0.20
Protein GSTM3, 24 h
  Log2 10 µM Rosiglitazone/DMSO: 0.30
Protein HIGD1A, 24 h
  Log2 10 µM Rosiglitazone/DMSO: 0.43
Protein IREB2, 24 h
  Log2 10 µM Rosiglitazone/DMSO: 0.26
Protein ITGB4, 24 h
  Log2 10 µM Rosiglitazone/DMSO: 0.08
Protein LDHD, 24 h
  Log2 10 µM Rosiglitazone/DMSO: -0.20
Protein LDLR, 24 h
  Log2 10 µM Rosiglitazone/DMSO: 0.49
Protein LIPA, 24 h
  Log2 10 µM Rosiglitazone/DMSO: 0.034
Protein MARCH5, 24 h
  Log2 10 µM Rosiglitazone/DMSO: 0.40
Protein MGMT, 24 h
  Log2 10 µM Rosiglitazone/DMSO: -0.17
Protein MYO15B, 24 h
  Log2 10 µM Rosiglitazone/DMSO: 0.08
Protein NOP9, 24 h
  Log2 10 µM Rosiglitazone/DMSO: 0.07
Protein OAS1, 24 h
  Log2 10 µM Rosiglitazone/DMSO: 0.0144
Protein OGDHL, 24 h
  Log2 10 µM Rosiglitazone/DMSO: 0.10
Protein PANK4, 24 h
  Log2 10 µM Rosiglitazone/DMSO: -0.34
Protein PHPT1, 24 h
  Log2 10 µM Rosiglitazone/DMSO: -0.36
Protein PSIP1, 24 h
  Log2 10 µM Rosiglitazone/DMSO: 0.49
Protein RAB5B, 24 h
  Log2 10 µM Rosiglitazone/DMSO: 0.49
Protein RBP4, 24 h
  Log2 10 µM Rosiglitazone/DMSO: 0.20
Protein RRS1, 24 h
  Log2 10 µM Rosiglitazone/DMSO: 0.50
Protein SAMHD1, 24 h
  Log2 10 µM Rosiglitazone/DMSO: -0.43
Protein SCAMP3, 24 h
  Log2 10 µM Rosiglitazone/DMSO: 0.45
Protein SETDB1, 24 h
  Log2 10 µM Rosiglitazone/DMSO: 0.08
Protein SLC26A3, 24 h
  Log2 10 µM Rosiglitazone/DMSO: 0.10
Protein SLC39A14, 24 h
  Log2 10 µM Rosiglitazone/DMSO: -0.49
Protein STK4, 24 h
  Log2 10 µM Rosiglitazone/DMSO: 0.36
Protein SURF6, 24 h
  Log2 10 µM Rosiglitazone/DMSO: 0.26
Protein TGOLN2, 24 h
  Log2 10 µM Rosiglitazone/DMSO: 0.28
Protein TPD52L1, 24 h
  Log2 10 µM Rosiglitazone/DMSO: -0.45
Protein TTR, 24 h
  Log2 10 µM Rosiglitazone/DMSO: 0.46
Protein VPS52, 24 h
  Log2 10 µM Rosiglitazone/DMSO: 0.42

## O=C(Nc1ccncc1)c1cc([N+](=O)[O-])ccc1Cl [T0070907]
Protein ALDH3B1, 24 h
  Log2 50 µM T0070907/DMSO: -0.79
Protein ARHGAP17, 24 h
  Log2 50 µM T0070907/DMSO: -0.81
Protein ARMCX3, 24 h
  Log2 50 µM T0070907/DMSO: -0.71
Protein COL4A3BP, 24 h
  Log2 50 µM T0070907/DMSO: -0.76
Protein CROT, 24 h
  Log2 50 µM T0070907/DMSO: -0.85
Protein CTBP2, 24 h
  Log2 50 µM T0070907/DMSO: 0.83
Protein DDX21, 24 h
  Log2 50 µM T0070907/DMSO: 0.92
Protein FNTA, 24 h
  Log2 50 µM T0070907/DMSO: -0.97
Protein GID8, 24 h
  Log2 50 µM T0070907/DMSO: 0.60
Protein GIPC2, 24 h
  Log2 50 µM T0070907/DMSO: -0.69
Protein GIT2, 24 h
  Log2 50 µM T0070907/DMSO: -0.89
Protein GSTA1, 24 h
  Log2 50 µM T0070907/DMSO: -0.76
Protein GSTA2, 24 h
  Log2 50 µM T0070907/DMSO: -0.80
Protein GSTM3, 24 h
  Log2 50 µM T0070907/DMSO: -0.71
Protein HIGD1A, 24 h
  Log2 50 µM T0070907/DMSO: 0.70
Protein IREB2, 24 h
  Log2 50 µM T0070907/DMSO: 0.96
Protein ITGB4, 24 h
  Log2 50 µM T0070907/DMSO: 1.36
Protein LDHD, 24 h
  Log2 50 µM T0070907/DMSO: -0.67
Protein LDLR, 24 h
  Log2 50 µM T0070907/DMSO: 1.99
Protein LIPA, 24 h
  Log2 50 µM T0070907/DMSO: -0.85
Protein MARCH5, 24 h
  Log2 50 µM T0070907/DMSO: 1.21
Protein MGMT, 24 h
  Log2 50 µM T0070907/DMSO: -0.69
Protein MYO15B, 24 h
  Log2 50 µM T0070907/DMSO: -0.74
Protein NOP9, 24 h
  Log2 50 µM T0070907/DMSO: 1.10
Protein OAS1, 24 h
  Log2 50 µM T0070907/DMSO: 0.92
Protein OGDHL, 24 h
  Log2 50 µM T0070907/DMSO: -1.02
Protein PANK4, 24 h
  Log2 50 µM T0070907/DMSO: -0.81
Protein PHPT1, 24 h
  Log2 50 µM T0070907/DMSO: -1.25
Protein PSIP1, 24 h
  Log2 50 µM T0070907/DMSO: 0.60
Protein RAB5B, 24 h
  Log2 50 µM T0070907/DMSO: 0.62
Protein RBP4, 24 h
  Log2 50 µM T0070907/DMSO: -0.37
Protein RRS1, 24 h
  Log2 50 µM T0070907/DMSO: 0.77
Protein SAMHD1, 24 h
  Log2 50 µM T0070907/DMSO: -0.81
Protein SCAMP3, 24 h
  Log2 50 µM T0070907/DMSO: 0.64
Protein SETDB1, 24 h
  Log2 50 µM T0070907/DMSO: 0.63
Protein SLC26A3, 24 h
  Log2 50 µM T0070907/DMSO: -1.02
Protein SLC39A14, 24 h
  Log2 50 µM T0070907/DMSO: -0.69
Protein STK4, 24 h
  Log2 50 µM T0070907/DMSO: -0.81
Protein SURF6, 24 h
  Log2 50 µM T0070907/DMSO: 0.78
Protein TGOLN2, 24 h
  Log2 50 µM T0070907/DMSO: 0.93
Protein TPD52L1, 24 h
  Log2 50 µM T0070907/DMSO: -1.09
Protein TTR, 24 h
  Log2 50 µM T0070907/DMSO: -1.25
Protein VPS52, 24 h
  Log2 50 µM T0070907/DMSO: 0.77
